# In US20250136584A1, “Benzimidazole Or Azabenzimidazole Compound, Preparation Method Therefor And Use Thereof” (Chengdu Di'Ao Jiuhong Pharmaceutical Factory, priority 2022, published 2025):
# Tests used:
# GLP1R = GLP1R (Homo sapiens, UniProt P43220); assay: Agonist activity on GLP1R/CRE-LUC HEK293 cells (luciferase reporter, ONE-Glo); format: cell-based; details: for EC50: GLP1R/CRE-LUC HEK293 cells, 6 hours incubation, chemiluminescence signal; for activity compared with comparative example compounds PF-06882961, DB02, DB03 and DB06: from Table 1, also much higher than DB04 and DB05
# Procedure: Logarithmically growing GLP1R/CRE-LUC HEK293 cells (purchased from Nanjing Cobioer) were digested, the digested cells were re-suspended in a DMEM+10% FBS culture medium, and a cell density was adjusted to be 3.5*10^5/mL. The cell solution was added into a 96-well cell culture plate by 100 µL/well, and the plate was cultured overnight in an incubator (37° C., 5% CO2).
# A compound was dissolved with DMSO to prepare a storage solution at an initial concentration of 10 mM, an initial concentration of the small molecular compound was 0.2 mM, and the compound was diluted by 3 times and 10 points were diluted, while the 11th point was DMSO. Another 96-well plate was taken, added with 95 μL of cell culture solution (DMEM+10% FBS) in each well, then added with 5 μL of to-be-tested samples at different concentrations in each well, mixed evenly, and then added with 11 μL of to-be-tested samples at different concentrations in each well of the cell culture plate, and each sample had two wells. The culture plate was incubated in an incubator for 6 hours (37° C., […]). The 96-well cell culture plate was taken out, added with 100 μL of ONE-Glo™ reagent in each well, and incubated at room temperature for 10 minutes, and a chemiluminescence signal value was measured with an enzyme-labeled instrument. Data were processed and analyzed by Microsoft Excel and Graphpad Prism6 to obtain an EC50 value of the compound.
# hGLP1R mice = assay: Glucose tolerance test in hGLP1R mice after single oral administration; format: in vivo; details: 1 mg/kg oral once; for onset of blood glucose reduction compared with comparative example compound DB05 / blood glucose reduction effect compared with comparative example compound DB05: FIG. 1 and FIG. 2; for blood glucose reduction effect compared with PF-06882961: glucose 2 g/kg i.p. 60 minutes later; for blood glucose reduction effect compared with PF-06882961 / blood glucose reduction effect compared with comparative example compound DB05: blood glucose curves and AUC (0 to 120 minutes)
# Procedure: Genetically engineered hGLP1R mice, male, purchased from Biocytogen Jiangsu Gene Biotechnology Co., Ltd., were fasted overnight before the glucose tolerance test (IPTGG), without water deprivation. A solvent or corresponding compound was orally administered once, a glucose solution (2 g/kg) was intraperitoneally injected 60 minutes after administration, and a blood glucose value before administration of glucose (equivalent to a blood glucose value of 0 minute) and blood glucose values 15 minutes, 30 minutes, 60 minutes and 120 minutes after administration of glucose were measured. The solvent was 5% DMSO+40% PEG400+55% physiological saline, and a dosage of the compound was 1 mg/kg (n=3).
# Chain of GLP1R (P43220 24-463): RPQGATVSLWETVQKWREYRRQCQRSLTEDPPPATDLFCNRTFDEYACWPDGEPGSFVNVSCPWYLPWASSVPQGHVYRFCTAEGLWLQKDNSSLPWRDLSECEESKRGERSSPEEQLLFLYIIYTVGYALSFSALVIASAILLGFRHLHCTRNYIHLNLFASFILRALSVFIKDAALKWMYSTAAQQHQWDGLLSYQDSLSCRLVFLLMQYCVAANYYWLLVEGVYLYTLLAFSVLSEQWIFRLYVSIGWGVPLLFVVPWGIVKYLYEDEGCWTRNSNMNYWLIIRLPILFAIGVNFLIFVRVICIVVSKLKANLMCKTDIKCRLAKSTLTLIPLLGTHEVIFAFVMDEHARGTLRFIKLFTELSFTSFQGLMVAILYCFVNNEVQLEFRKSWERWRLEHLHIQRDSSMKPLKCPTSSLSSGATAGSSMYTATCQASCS
Compound,EC50 (GLP1R),"activity compared with comparative example compounds PF-06882961, DB02, DB03 and DB06 (GLP1R)",onset of blood glucose reduction compared with comparative example compound DB05 (hGLP1R mice),blood glucose reduction effect compared with PF-06882961 (hGLP1R mice),blood glucose reduction effect compared with comparative example compound DB05 (hGLP1R mice)
O=C(O)c1ccc2nc(CC3CCN(c4cccc(OCc5ccc(Cl)c6ccoc56)n4)CC3)n(C[C@@H]3CCO3)c2c1 [Compound 1],114 nM,,,,
O=C(O)c1ccc2nc(CC3=CCN(c4cccc(OCc5ccc(Cl)c6ccoc56)n4)CC3)n(C[C@@H]3CCO3)c2c1 [Compound 2],101 nM,,,,
N#Cc1ccc(COc2cccc(N3CCC(Cc4nc5ccc(C(=O)O)cc5n4C[C@@H]4CCO4)CC3)n2)c2occc12 [Compound 3],65.1 nM,,,,
O=C(O)c1ccc2nc(CN3CC=C(c4cccc(OCc5cccc6c5oc5ccccc56)n4)CC3)n(C[C@@H]3CCO3)c2c1 [Compound 13],13.6 nM,higher,,,
O=C(O)c1ccc2nc(CN3CC=C(c4cccc(OCc5cccc6c5oc5ccccc56)n4)CC3)n(C[C@@H]3CCO3)c2n1 [Compound 14],6.76 nM,higher,,,
O=C(O)c1ccc2nc(CC3CC=C(c4cccc(OCc5cccc6c5oc5ccccc56)n4)CC3)n(C[C@@H]3CCO3)c2c1 (stereo partly drawn) [Compound 15],25.8 nM,,,,
N#Cc1ccc(COc2cccc(-c3ccc(Cc4nc5ccc(C(=O)O)cc5n4C[C@@H]4CCO4)c(F)c3)n2)c2occc12 [Compound 19],3.2 nM,higher,took effect more quickly,significantly better,significantly better
O=C(O)c1ccc2nc(Cc3cc(F)c(-c4cccc(OCc5ccc(Cl)c6ccoc56)n4)cc3F)n(C[C@@H]3CCO3)c2c1 [Compound 25],11.5 nM,higher,,,
O=C(O)c1ccc2nc(Cc3ccc(-c4cccc(OCc5ccc(Cl)c6ccoc56)n4)cc3F)n(C[C@@H]3CCO3)c2n1 [Compound 38],7.53 nM,higher,took effect more quickly,significantly better,significantly better
O=C(O)c1ccc2nc(Cc3ccc(-c4cccc(OCc5cccc6c5oc5ccccc56)n4)cc3F)n(C[C@@H]3CCO3)c2c1 [Compound 61],,,took effect more quickly,significantly better,significantly better
N#Cc1ccc(COc2cccc(-c3ccc(Cc4nc5ccc(C(=O)O)nc5n4C[C@@H]4CCO4)c(F)c3)n2)c2occc12 [Compound 67],1.97 nM,higher,,,
O=C(O)c1ccc2nc(Cc3ccc(-c4cccc(OCc5ccc(Cl)c6ccoc56)n4)cc3F)n(C[C@@H]3CCO3)c2c1F [Compound 91],0.76 nM,higher,,,
O=C(O)c1ccc2nc(Cc3ccc(-c4cccc(OCc5ccc(Cl)c6cc(F)oc56)n4)cc3F)n(C[C@@H]3CCO3)c2c1F [Compound 92],1.76 nM,higher,,,
O=C(O)c1ccc2nc(Cc3ccc(-c4nc(OCc5ccc(Cl)c6ccoc56)ccc4F)cc3F)n(C[C@@H]3CCO3)c2c1 [Compound 95],2.33 nM,higher,,,
O=C(O)c1ccc2nc(Cc3ccc(-c4nc(OCc5ccc(Cl)c6ccoc56)c(F)cc4F)cc3F)n(C[C@@H]3CCO3)c2c1 [Compound 96],3.02 nM,higher,,,
O=C(O)c1ccc2nc(Cc3ccc(-c4ccc(F)c(OCc5cccc6c5oc5ccccc56)n4)cc3F)n(C[C@@H]3CCO3)c2c1 [Compound 97],7.57 nM,higher,,,
O=C(O)c1ccc2nc(Cc3c(F)cc(-c4cccc(OCc5ccc(Cl)c6ccoc56)n4)cc3F)n(C[C@@H]3CCO3)c2c1 [Compound 101],0.69 nM,higher,,,

# Second part, led by results:
EC50 (GLP1R),"activity compared with comparative example compounds PF-06882961, DB02, DB03 and DB06 (GLP1R)",Compound,onset of blood glucose reduction compared with comparative example compound DB05 (hGLP1R mice),blood glucose reduction effect compared with PF-06882961 (hGLP1R mice),blood glucose reduction effect compared with comparative example compound DB05 (hGLP1R mice)
9.1 nM,higher,Cc1cc2c(Cl)ccc(COc3cccc(-c4ccc(Cc5nc6ccc(C(=O)O)cc6n5C[C@@H]5CCO5)c(F)c4)n3)c2o1 [Compound 102],,,
1.17 nM,higher,O=C(O)c1ccc2nc(Cc3ccc(-c4ccc(F)c(OCc5ccc(F)c6ccoc56)n4)cc3F)n(C[C@@H]3CCO3)c2c1 [Compound 103],,,
1.09 nM,higher,O=C(O)c1cc(F)c2nc(Cc3ccc(-c4cccc(OCc5ccc(Cl)c6ccoc56)n4)cc3F)n(C[C@@H]3CCO3)c2c1 [Compound 105],,,
5.87 nM,higher,O=C(O)c1ccc2nc(CC3CC=C(c4ccc(F)c(OCc5ccc(Cl)c6ccoc56)n4)CC3)n(C[C@@H]3CCO3)c2c1 (stereo partly drawn) [Compound 106],,significantly better,
1.9 nM,higher,O=C(O)c1ccc2nc(CC3CC=C(c4ccc(F)c(OCc5ccc(Cl)c6cc(Cl)oc56)n4)CC3)n(C[C@@H]3CCO3)c2c1 (stereo partly drawn) [Compound 107],,significantly better,
3.11 nM,higher,O=C(O)c1ccc2nc(CC3CC=C(c4cccc(OCc5ccc(Cl)c6cc(Cl)oc56)n4)CC3)n(C[C@@H]3CCO3)c2c1 (stereo partly drawn) [Compound 108],,,
13.6 nM,,"O=C(O)c1ccc2nc(CN3CC=C(c4cccc(OCc5ccc(Cl)c6ccoc56)n4)CC3)n(C[C@@H]3CCO3)c2c1 [DB02, reference compound]",,,
275 nM,,"COCCn1c(Cc2ccc(-c3cccc(OCc4ccc(C#N)c5ccoc45)n3)cc2F)nc2ccc(C(=O)O)cc21 [DB04, reference compound]",,,
312 nM,,"COCCn1c(Cc2ccc(-c3cccc(OCc4ccc(Cl)c5ccoc45)n3)cc2F)nc2ccc(C(=O)O)cc21 [DB05, reference compound]",,,
